In ChEMBL document CHEMBL1147427, “2-hydroxy-4-isopropylbenzaldehyde, a potent partial tyrosinase inhibitor” (Bioorg Med Chem Lett, 2004) one finds IC50 data, which are given here for one molecule.

The subject of this test is Tyrosinase (Agaricus bisporus). Nature of the test: Inhibitory activity at a concentration of 0.5 nm, was evaluated against the oxidation of L-3,4-dihydroxyphenylalanine (L-DOPA) catalyzed by mushroom tyrosinase; No inhibitory activity.

Turning to `COc1cc(C(C)C)ccc1C=O`, the IC50 result was “No inhibition”.
